Data: ChEMBL document CHEMBL1201862, “PubChem BioAssay data set” (2004)
Active and inactive are the calls of the source.

Tests used:
[1] = molecular target: T1, Ubiquitin-conjugating enzyme E2 N (Homo sapiens, UniProt P61088); type: functional;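 further: Dose-response confirmation in a TR-FRET assay detecting UBC13-driven polyubiquitin chain formation, inhibition measured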
T1 sequence (P61088 whole entry): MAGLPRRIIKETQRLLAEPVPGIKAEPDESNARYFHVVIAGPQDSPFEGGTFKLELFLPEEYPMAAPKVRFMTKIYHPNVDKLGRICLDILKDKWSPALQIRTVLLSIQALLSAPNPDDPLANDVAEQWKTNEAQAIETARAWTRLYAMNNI

[2] = HEp-2 cell cytotoxicity, dose response, cytotoxicity control for RSV inhibitor project, HTS (AID 2410); type: functional; settings: human respiratory syncytial virus
[3] = microbe, parasite or virus in culture; type: functional; settings: Mycobacterium tuberculosis
[4] = molecular target: T2, Aminopeptidase N (Plasmodium falciparum FcB1/Columbia, UniProt O96935); assay: P. falciparum M1AAP inhibitors, biochemical, fluorogenic H-Leu-NHMec substrate, 1536-well (AID 1445); parameters: species or system Plasmodium falciparum 3D7, 3D7
T2 sequence (O96935 whole entry): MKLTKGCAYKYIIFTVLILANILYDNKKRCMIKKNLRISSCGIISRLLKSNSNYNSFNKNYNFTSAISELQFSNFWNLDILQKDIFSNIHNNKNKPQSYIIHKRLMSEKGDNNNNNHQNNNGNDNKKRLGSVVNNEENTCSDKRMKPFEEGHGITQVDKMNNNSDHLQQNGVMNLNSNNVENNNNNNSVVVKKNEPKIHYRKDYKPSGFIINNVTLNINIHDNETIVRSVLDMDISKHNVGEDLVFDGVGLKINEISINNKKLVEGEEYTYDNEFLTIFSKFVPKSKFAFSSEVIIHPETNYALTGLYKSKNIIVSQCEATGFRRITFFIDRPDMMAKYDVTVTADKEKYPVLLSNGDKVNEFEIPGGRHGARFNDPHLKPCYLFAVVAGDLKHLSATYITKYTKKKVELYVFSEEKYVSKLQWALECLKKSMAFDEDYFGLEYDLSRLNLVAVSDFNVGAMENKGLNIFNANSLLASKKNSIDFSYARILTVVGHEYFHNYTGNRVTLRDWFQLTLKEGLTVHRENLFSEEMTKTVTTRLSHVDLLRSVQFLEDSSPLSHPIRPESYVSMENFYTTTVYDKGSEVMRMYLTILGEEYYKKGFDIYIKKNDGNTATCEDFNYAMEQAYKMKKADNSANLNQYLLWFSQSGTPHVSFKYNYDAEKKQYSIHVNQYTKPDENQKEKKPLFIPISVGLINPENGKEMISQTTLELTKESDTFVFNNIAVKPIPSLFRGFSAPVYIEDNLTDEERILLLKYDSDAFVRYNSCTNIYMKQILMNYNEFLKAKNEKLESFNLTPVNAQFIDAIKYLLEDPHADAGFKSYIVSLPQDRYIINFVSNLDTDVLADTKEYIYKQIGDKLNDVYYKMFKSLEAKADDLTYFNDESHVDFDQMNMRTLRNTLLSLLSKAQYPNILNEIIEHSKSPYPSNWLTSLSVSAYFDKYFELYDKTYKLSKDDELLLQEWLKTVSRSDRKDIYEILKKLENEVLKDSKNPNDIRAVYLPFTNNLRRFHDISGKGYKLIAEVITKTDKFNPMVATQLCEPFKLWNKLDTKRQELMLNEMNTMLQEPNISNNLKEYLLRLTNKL

[5] = molecular target: Large T antigen (Simian virus 40, UniProt P03070); type: functional, Betapolyomavirus macacae;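 further: Confirmatory-stage PubChem screen for compounds that inhibit SV40 T antigen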
Large T antigen, sequence (P03070 whole entry): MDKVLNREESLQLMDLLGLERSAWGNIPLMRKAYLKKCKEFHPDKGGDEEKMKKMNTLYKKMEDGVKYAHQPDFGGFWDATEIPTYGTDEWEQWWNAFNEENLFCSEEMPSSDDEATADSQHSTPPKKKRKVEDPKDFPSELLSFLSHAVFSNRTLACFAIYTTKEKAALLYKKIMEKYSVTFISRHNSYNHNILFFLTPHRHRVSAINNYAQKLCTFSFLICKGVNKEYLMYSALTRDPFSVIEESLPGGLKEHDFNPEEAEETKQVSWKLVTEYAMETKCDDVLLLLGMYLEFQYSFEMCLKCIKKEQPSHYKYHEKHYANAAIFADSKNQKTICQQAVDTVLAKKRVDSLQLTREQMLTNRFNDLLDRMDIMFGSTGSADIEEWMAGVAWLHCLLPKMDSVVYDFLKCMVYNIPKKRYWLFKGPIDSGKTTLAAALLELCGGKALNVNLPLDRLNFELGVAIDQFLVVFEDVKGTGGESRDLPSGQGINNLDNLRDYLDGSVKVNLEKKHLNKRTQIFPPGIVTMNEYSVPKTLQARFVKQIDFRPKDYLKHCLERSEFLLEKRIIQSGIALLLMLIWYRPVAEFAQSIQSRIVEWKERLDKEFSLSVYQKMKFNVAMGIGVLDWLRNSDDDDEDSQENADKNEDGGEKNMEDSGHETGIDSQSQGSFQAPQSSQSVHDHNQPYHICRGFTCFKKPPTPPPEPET

[6] = molecular target: T3, Mannose-6-phosphate isomerase (Homo sapiens, UniProt P34949); assay: human PMI inhibitors, high substrate, primary screen, biochemical, fluorescence intensity, high mannose 6-phosphate (AID 1220)
T3 sequence (P34949 whole entry): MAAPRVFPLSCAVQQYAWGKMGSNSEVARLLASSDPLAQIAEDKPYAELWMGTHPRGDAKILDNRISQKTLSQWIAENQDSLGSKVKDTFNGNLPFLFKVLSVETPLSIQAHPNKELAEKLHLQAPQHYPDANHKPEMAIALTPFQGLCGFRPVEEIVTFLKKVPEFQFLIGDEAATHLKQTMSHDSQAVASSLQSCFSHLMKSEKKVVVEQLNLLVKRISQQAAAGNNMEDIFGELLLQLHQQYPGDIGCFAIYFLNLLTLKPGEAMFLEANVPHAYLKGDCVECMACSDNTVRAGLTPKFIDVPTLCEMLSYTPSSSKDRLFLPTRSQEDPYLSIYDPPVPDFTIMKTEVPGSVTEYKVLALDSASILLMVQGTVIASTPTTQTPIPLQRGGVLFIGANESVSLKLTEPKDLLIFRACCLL

[7] = molecular target: Genome polyprotein (dengue virus type 2, UniProt P29990); assay: Dengue-2 NS5 methyltransferase inhibitors, primary screen, biochemical, confirmation dose response (AID 588689); type: functional
Genome polyprotein, sequence (P29990 2492-3391 limits assumed): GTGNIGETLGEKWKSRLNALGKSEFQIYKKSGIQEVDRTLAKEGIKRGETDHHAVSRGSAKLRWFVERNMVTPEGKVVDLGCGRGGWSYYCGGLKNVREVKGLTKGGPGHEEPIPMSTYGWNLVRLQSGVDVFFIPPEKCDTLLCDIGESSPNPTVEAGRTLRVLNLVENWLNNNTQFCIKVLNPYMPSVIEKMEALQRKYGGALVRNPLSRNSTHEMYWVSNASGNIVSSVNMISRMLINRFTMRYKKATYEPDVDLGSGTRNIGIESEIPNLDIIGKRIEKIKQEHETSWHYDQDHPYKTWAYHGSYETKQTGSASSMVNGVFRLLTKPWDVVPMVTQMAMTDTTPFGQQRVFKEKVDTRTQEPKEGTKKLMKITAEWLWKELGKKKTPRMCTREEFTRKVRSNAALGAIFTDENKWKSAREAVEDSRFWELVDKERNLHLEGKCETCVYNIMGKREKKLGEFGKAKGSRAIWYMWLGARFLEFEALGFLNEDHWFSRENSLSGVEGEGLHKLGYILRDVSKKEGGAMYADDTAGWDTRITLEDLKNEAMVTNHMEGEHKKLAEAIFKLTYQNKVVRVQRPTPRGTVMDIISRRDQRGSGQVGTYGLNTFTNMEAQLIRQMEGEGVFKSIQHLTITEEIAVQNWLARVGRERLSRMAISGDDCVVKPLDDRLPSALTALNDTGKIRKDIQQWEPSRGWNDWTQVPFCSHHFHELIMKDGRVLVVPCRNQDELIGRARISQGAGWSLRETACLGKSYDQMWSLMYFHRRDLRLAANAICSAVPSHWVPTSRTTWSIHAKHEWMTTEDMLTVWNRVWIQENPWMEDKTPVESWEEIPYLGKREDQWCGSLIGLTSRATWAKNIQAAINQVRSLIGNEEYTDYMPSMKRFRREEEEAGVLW

[8] = molecular target: T4, Rac GTPase-activating protein 1 (Homo sapiens, UniProt Q9H0H5); assay: MgcRacGAP GTPase-activating activity inhibitors, confirmation, biochemical, ADP Hunter fluorescence, primary and confirmatory (AID 624330); type: functional
T4 sequence (Q9H0H5 whole entry): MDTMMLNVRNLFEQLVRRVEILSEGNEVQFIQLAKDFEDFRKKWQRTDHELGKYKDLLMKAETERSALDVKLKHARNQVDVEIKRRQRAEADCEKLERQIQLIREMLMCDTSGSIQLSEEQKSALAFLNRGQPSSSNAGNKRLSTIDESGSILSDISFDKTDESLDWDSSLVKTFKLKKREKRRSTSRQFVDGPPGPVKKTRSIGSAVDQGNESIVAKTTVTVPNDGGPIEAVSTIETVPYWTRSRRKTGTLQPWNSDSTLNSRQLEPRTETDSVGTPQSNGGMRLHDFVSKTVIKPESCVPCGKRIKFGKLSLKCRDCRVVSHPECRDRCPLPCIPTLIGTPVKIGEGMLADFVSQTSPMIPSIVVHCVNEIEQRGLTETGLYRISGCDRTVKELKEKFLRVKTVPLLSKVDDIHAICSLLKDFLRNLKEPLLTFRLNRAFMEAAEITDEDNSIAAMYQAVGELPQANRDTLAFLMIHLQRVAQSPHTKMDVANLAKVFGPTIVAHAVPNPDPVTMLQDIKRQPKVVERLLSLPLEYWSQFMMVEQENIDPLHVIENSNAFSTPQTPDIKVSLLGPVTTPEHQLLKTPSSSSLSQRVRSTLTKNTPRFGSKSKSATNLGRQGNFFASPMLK

[9] = molecular target: T5, Leucine aminopeptidase (Plasmodium falciparum 3D7, UniProt Q8IL11); assay: P. falciparum M17LAP inhibitors, primary screen, biochemical, fluorogenic H-Leu-NHMec substrate, 1536-well (AID 1619); type: functional
T5 sequence (Q8IL11 whole entry): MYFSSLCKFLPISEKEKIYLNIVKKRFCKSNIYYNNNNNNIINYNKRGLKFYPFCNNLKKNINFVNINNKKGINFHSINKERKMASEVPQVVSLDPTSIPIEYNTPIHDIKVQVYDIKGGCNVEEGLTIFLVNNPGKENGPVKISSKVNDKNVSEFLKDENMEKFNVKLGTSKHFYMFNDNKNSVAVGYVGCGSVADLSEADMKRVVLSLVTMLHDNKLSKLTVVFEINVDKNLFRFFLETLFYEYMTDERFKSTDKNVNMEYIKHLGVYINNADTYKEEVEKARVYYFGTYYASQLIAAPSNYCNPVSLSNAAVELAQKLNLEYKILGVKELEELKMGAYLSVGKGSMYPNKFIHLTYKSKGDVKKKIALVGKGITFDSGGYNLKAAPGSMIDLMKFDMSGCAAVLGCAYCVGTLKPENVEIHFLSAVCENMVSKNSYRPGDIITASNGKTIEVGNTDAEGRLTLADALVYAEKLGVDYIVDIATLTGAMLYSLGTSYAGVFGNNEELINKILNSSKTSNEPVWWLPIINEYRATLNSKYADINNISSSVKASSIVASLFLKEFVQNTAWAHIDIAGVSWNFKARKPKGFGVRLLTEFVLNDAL

[10] = growth suppression of PTEN-null colon cells, dose response, cell-based, HCT116 PTEN knockout (AID 1047); type: functional;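 further: HCT116 colon tumor cells with PTEN knocked out; cells exposed to compound for 60 hours before readout; potency for loss of cell viability measured by luminescence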
[11] = growth suppression of beta-catenin-knockout colon cells, dose response, cell-based, HCT116, human colon tumor (AID 1045); type: functional;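 further: HCT116 colon tumor cells with beta catenin knocked out; cells exposed to compound for 60 hours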
[12] = molecular target: Glyceraldehyde-3-phosphate dehydrogenase (Homo sapiens, UniProt P04406)
Glyceraldehyde-3-phosphate dehydrogenase, sequence (P04406 whole entry): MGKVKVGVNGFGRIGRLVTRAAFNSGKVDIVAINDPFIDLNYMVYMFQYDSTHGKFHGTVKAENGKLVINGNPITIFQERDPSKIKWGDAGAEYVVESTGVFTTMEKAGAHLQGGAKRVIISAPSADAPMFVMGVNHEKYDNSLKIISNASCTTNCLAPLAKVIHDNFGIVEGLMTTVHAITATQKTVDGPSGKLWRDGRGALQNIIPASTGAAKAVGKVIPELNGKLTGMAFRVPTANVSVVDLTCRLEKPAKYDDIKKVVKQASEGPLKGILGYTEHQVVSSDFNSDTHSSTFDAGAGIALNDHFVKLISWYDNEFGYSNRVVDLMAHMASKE

[13] = molecular target: Cytochrome P450 2C9 (Homo sapiens, UniProt P11712)
Cytochrome P450 2C9, sequence (P11712 whole entry): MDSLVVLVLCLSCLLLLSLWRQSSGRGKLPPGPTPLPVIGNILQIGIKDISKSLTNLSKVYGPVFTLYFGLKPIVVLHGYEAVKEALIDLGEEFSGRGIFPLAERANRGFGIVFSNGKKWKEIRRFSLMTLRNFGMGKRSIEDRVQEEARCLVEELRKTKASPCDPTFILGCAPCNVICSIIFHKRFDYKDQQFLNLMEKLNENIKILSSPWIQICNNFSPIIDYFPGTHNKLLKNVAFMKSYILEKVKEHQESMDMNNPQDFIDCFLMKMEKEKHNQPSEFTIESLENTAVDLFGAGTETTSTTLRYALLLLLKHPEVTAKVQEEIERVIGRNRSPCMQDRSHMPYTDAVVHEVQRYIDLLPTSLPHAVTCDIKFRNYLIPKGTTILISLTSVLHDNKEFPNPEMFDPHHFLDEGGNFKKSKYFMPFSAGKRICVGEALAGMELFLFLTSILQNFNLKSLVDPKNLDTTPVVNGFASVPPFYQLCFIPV

[14] = molecular target: T6, Replicative DNA helicase DnaB (Mycobacterium tuberculosis, UniProt P9WMR3); assay: DnaB intein splicing inhibitors, dose response, biochemical, cell-free fluorescence (AID 449749); type: functional
T6 sequence (P9WMR3 whole entry): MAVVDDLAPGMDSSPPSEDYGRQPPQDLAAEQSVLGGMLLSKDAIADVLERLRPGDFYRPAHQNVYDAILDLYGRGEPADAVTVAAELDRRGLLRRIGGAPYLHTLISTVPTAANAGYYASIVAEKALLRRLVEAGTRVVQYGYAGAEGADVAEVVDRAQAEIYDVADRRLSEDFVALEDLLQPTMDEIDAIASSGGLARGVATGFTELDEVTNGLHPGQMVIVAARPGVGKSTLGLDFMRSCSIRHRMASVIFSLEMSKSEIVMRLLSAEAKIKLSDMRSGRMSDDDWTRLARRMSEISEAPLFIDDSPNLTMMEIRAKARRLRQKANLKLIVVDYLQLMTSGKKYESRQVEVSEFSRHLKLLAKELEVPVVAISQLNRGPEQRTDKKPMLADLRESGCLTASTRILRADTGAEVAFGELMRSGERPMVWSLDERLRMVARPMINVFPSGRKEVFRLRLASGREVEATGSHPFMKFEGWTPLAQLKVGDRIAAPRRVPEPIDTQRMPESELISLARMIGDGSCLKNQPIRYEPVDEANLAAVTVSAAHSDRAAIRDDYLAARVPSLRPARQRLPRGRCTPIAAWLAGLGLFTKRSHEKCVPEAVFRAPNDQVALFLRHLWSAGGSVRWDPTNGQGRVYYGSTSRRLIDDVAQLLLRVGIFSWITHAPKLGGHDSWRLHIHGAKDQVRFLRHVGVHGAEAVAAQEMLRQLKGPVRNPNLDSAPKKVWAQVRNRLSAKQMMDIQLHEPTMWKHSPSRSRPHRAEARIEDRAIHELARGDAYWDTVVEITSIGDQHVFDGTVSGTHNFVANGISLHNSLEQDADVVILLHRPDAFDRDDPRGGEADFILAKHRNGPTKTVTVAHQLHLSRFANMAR

[15] = molecular target: T7, Protein RecA (Mycobacterium tuberculosis, UniProt P9WHJ3); assay: Fluorescence Cell-Free Homogeneous Dose Retest to Identify Inhibitors of RecA-Intein Splicing Activity. [Related pubchem assays (depositor defined):AID2097, AID2223, AID489010, AID492950]; type: functional
T7 sequence (P9WHJ3 whole entry): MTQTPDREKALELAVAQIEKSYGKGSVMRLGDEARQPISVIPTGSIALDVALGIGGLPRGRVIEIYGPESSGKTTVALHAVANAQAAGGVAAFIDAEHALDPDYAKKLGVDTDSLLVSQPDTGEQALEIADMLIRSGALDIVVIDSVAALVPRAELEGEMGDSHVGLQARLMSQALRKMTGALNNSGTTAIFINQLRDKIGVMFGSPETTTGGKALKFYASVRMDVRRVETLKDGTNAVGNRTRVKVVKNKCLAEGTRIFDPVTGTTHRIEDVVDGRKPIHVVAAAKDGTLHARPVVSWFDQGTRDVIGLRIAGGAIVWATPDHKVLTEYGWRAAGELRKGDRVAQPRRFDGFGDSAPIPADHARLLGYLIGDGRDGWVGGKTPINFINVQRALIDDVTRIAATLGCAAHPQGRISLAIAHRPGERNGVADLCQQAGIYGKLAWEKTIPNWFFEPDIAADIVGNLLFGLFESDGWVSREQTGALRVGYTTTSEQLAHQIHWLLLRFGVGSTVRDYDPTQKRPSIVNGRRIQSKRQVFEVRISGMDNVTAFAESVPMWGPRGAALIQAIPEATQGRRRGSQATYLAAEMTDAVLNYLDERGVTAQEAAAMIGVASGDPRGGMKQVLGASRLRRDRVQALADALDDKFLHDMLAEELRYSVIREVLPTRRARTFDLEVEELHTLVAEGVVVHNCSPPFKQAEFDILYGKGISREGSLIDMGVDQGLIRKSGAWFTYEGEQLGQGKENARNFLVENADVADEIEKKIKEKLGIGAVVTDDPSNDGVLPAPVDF

[16] = system: Vero; assay: host cell cytotoxicity of antiviral hits, dose response, cytotoxicity control for West Nile virus antiviral project, secondary assay (AID 1650); type: functional; settings: Chlorocebus sabaeus
[17] = Luminescence Cell-Based Dose Retest to Confirm Inhibitors of Cancer Stem Cells. [Related pubchem assays (depositor defined):AID2717, AID2721]; type: functional; settings: Homo sapiens
[18] = system: Vero; assay: cells; type: functional; settings: Chlorocebus sabaeus

SMILES: Cc1ccc(CNC(=O)CSc2nc3ccsc3c(=O)n2Cc2ccc(C(=O)O)cc2)cc1
- IC50 [1]: > 20 µM (inactive)

SMILES: CCCCOc1ccc(C(=O)N/N=C/c2ccc(OCCN3CCCCC3)c(OC)c2)cc1
- CC50 [2]: 16.1 µM (active)
- CC50 [3]: 18.9 µM (active)

SMILES: CC1=NOC(=O)/C1=C\c1ccc(-c2ccc(Cl)c(C(=O)O)c2)o1
- IC50 [4]: 17.4 µM (active)
- IC50 [5]: 14.2 µM (active)
- IC50 [6]: > 50 µM (not active)
- IC50 [7]: 15.3 µM (active)
- IC50 [8]: 141 µM (active)

SMILES: Cc1nc2c([nH]1)OC(N)=C(C#N)C21CCN(Cc2ccccc2)CC1
- IC50 [9]: 63.2 µM (active)

SMILES: CCCCN1C(=O)C2Cc3c([nH]c4ccccc34)CN2C1=S (stereo not given)
- CC50 [2]: 20.8 µM (active)

SMILES: CCOC(=O)c1ccc(-c2ccc(/C=N/NC(=O)CN(c3ccccc3Br)S(C)(=O)=O)o2)cc1
- CC50 [2]: > 50 µM (active)
- EC50 [10]: 17.8 µM (active)
- EC50 [11]: 22.5 µM (active)

SMILES: COc1ccc(-c2nc(N3CCOCC3)nc3n[nH]c(N)c23)cc1
- IC50 [9]: 8.11 µM (active)

SMILES: O=C(Nc1nncs1)c1cccc(S(=O)(=O)N2CCCC2)c1
- IC50 [12]: > 100 µM (not active)

SMILES: COc1ccc(/C=C/C(=O)Nc2ccc3c(c2)CCC3)cc1OC
- CC50 [2]: > 50 µM (active)

SMILES: Cn1c(O)cc(=O)nc1SCC(=O)Nc1ccccc1
- IC50 [9]: 17.1 µM (active)
- AC50 [13]: 2.82 µM (inconclusive)

SMILES: COc1cccc(S(=O)(=O)Nc2cnc3ccccc3c2)c1
- IC50 [12]: > 100 µM (not active)

SMILES: CC1=NN(CCC#N)C(=O)/C1=C/c1ccc(N(C)C)cc1
- IC50 [9]: 120 µM (active)
- AC50 [14]: 2.79 µM (inconclusive)
- EC50 [15]: 3.17 µM (active)

SMILES: O=C(c1c[nH]c2ccccc12)C(Cl)c1ccccc1 (stereo not given)
- CC50 [16]: 66.6 µM (active)
- AC50 [17]: 1.74 µM (active)
- CC50 [18]: > 25 µM (active)
